Key:
Format in all cases: biochemical
GH2C = biological target: T1, GH2C (Bacteroides uniformis, UniProt A0A2D0TCC9); test: TLC product analysis; conditions: 2 uM enzyme, 2.5 mM A3, 20 mM Tris pH 8.0, 0.5 M NaCl, 37 C, 2 h
T1 construct: nucleotides 76-2547 of the gene (signal peptide removed; about residues 26-848), N-terminal His6 tag with thrombin site, pET28a, E. coli BL21 Star (DE3)
T1 sequence (A0A2D0TCC9 4-826): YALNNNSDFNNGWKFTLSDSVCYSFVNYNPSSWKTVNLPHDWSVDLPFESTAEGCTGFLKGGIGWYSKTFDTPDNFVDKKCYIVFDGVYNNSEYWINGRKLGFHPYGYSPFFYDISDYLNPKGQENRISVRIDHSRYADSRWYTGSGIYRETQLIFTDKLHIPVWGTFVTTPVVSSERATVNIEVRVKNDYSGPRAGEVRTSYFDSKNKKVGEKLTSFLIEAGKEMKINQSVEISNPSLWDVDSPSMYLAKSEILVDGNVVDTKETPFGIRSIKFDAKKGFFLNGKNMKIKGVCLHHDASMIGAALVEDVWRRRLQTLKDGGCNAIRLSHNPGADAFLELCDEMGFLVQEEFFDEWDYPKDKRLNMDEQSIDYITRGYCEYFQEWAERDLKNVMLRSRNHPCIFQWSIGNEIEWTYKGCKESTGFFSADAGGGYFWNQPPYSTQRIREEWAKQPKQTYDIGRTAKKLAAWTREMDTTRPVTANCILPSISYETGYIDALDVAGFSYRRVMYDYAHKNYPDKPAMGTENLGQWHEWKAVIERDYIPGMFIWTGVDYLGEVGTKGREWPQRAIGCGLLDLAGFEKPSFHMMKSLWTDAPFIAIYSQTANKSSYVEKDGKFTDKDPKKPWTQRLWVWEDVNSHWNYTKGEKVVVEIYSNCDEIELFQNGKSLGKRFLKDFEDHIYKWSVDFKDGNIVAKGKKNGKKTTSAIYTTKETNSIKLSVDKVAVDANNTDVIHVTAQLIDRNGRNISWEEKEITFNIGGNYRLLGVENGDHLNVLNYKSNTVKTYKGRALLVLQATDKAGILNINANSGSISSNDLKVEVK

GH117B = biological target: T2, GH117B (Bacteroides uniformis, UniProt A0A2D0TCD6); test: TLC product analysis; conditions: 0.5 uM enzyme, 0.5 mg/ml N2, 20 mM Tris pH 8.0, 0.5 M NaCl, 37 C, 24 h
T2 construct: nucleotides 76-1209 of the gene (signal peptide removed; about residues 26-402), N-terminal His6 tag with thrombin site, pET28a, E. coli BL21 Star (DE3); homodimer
T2 sequence (A0A2D0TCD6 4-380): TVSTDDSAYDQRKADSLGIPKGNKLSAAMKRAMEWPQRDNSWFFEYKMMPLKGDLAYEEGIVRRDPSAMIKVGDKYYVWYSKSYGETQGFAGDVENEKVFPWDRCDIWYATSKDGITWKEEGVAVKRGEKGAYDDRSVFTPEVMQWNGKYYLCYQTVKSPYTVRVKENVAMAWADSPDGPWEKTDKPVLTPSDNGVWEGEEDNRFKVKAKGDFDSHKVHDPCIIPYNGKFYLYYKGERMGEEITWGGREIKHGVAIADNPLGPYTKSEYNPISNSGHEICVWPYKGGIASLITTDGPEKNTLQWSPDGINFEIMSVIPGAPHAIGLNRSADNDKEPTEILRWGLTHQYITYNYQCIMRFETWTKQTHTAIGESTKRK

GH86 = biological target: T3, GH86 (Bacteroides uniformis, UniProt A0A2D0TCD3); test: FACE product analysis; conditions: 20 mM Tris pH 8.0, 0.5 M NaCl, 37 C, overnight
T3 construct: nucleotides 61-1941 of the gene (signal peptide removed; about residues 21-646), N-terminal His6 tag with thrombin site, pET28a, E. coli BL21 Star (DE3)
T3 sequence (A0A2D0TCD3 4-629): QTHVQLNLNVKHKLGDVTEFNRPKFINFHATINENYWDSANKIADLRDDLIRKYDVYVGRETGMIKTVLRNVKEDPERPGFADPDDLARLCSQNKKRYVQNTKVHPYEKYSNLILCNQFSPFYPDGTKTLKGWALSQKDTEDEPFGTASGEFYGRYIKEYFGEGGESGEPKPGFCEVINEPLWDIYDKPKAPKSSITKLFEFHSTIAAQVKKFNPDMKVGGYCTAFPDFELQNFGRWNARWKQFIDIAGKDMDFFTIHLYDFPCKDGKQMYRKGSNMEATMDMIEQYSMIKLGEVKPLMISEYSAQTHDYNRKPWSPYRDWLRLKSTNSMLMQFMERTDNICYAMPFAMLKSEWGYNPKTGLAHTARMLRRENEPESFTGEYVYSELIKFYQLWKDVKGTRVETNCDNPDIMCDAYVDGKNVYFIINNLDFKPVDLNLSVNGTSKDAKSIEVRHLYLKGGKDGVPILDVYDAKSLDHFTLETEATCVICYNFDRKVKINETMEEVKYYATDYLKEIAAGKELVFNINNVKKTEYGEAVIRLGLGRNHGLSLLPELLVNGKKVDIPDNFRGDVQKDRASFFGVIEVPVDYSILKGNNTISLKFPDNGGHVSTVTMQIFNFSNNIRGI

GH16B = biological target: T4, GH16B (Bacteroides uniformis, UniProt A0A2D0TCD1); test: FACE product analysis; conditions: 20 mM Tris pH 8.0, 0.5 M NaCl, 37 C, overnight
T4 construct: nucleotides 67-1029 of the gene (signal peptide removed; about residues 23-342), N-terminal His6 tag with thrombin site, pET28a, E. coli BL21 Star (DE3)
T4 sequence (A0A2D0TCD1 4-323): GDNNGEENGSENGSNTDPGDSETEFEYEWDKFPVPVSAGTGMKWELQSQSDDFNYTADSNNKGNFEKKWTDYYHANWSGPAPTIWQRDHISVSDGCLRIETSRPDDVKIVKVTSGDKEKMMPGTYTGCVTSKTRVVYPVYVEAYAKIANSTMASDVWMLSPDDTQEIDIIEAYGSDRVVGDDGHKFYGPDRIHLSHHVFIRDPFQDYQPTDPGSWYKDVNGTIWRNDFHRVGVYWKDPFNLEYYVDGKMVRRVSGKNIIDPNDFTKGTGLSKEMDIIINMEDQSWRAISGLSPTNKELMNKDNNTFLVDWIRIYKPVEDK

SMILES: OC[C@H]1O[C@@H](O[C@H]2[C@H]3OC[C@@H]2O[C@@H](O[C@H]2[C@@H](O)[C@@H](CO)OC(O)[C@@H]2O)[C@H]3O)[C@H](O)[C@@H](O)[C@H]1O (stereo partly drawn) [A3, agarotriose]
- TLC product analysis (GH2C): GH2C was able to hydrolyze A3

SMILES: OC[C@H]1OC(O)[C@H](O)[C@@H](O[C@@H]2O[C@H]3CO[C@@H]([C@@H]2O)[C@@H]3O)[C@H]1O (stereo partly drawn) [N2, neoagarobiose]
- TLC product analysis (GH117B): GAL and AHG released from N2 by GH117B

SMILES: OC[C@H]1O[C@@H](O[C@H]2[C@H]3OC[C@@H]2O[C@@H](O[C@H]2[C@@H](O)[C@@H](CO)O[C@@H](O[C@H]4[C@H]5OC[C@@H]4O[C@@H](O[C@H]4[C@@H](O)[C@@H](CO)OC(O)[C@@H]4O)[C@H]5O)[C@@H]2O)[C@H]3O)[C@H](O)[C@@H](O[C@@H]2O[C@H]3CO[C@@H]([C@@H]2O)[C@@H]3O)[C@H]1O (stereo partly drawn) [N6, neoagarohexaose]
- FACE product analysis (GH86): GH86 was able to digest neoagarooctaose (N8) and neoagarohexaose (N6) to N2
- FACE product analysis (GH16B; weak activity): GH16B predominantly generated N4 from N8, N2 and N4 from N6

SMILES: OC[C@H]1O[C@@H](O[C@H]2[C@H]3OC[C@@H]2O[C@@H](O[C@H]2[C@@H](O)[C@@H](CO)O[C@@H](O[C@H]4[C@H]5OC[C@@H]4O[C@@H](O[C@H]4[C@@H](O)[C@@H](CO)O[C@@H](O[C@H]6[C@H]7OC[C@@H]6O[C@@H](O[C@H]6[C@@H](O)[C@@H](CO)OC(O)[C@@H]6O)[C@H]7O)[C@@H]4O)[C@H]5O)[C@@H]2O)[C@H]3O)[C@H](O)[C@@H](O[C@@H]2O[C@H]3CO[C@@H]([C@@H]2O)[C@@H]3O)[C@H]1O (stereo partly drawn) [N8, neoagarooctaose]
- FACE product analysis (GH86): GH86 was able to digest neoagarooctaose (N8) and neoagarohexaose (N6) to N2
- FACE product analysis (GH16B): GH16B predominantly generated N4 from N8, N2 and N4 from N6

Source: article PMC5849685, “Molecular basis of an agarose metabolic pathway acquired by a human intestinal symbiont” (Nature Communications, 2018)
